Reference: patent publication US12371454B2, “Cyclic peptide compound having Kras inhibitory action” (priority 2019, dated 2025)
Starred links: 1 amine or outer side, 2 acyl side, 3 side chain; linkers in the order of their positions; H or OH if unused. Positions of bridges follow the written chain, without caps; N, C: chain ends. Non-standard residues stand in square brackets, D forms with d. Residues, ends and D or L forms follow the SMILES beside them. *: point of attachment. NMeAbu(3,3-F2-piperidino) = CN[C@@H](CCN1CCCC(F)(F)C1)C(=O)O; hPhe(3-Cl-4-CF3) = N[C@@H](CCc1ccc(C(F)(F)F)c(Cl)c1)C(=O)O; hPhe(3-F,4-CF3) = N[C@@H](CCc1ccc(C(F)(F)F)c(F)c1)C(=O)O; NMePhe(3-CF3) = CN[C@@H](Cc1cccc(C(F)(F)F)c1)C(=O)O; NMePhe(4-CF3) = CN[C@@H](Cc1ccc(C(F)(F)F)cc1)C(=O)O; hPhe(4-CF3) = N[C@@H](CCc1ccc(C(F)(F)F)cc1)C(=O)O; NMePhe(3,4-F2) = CN[C@@H](Cc1ccc(F)c(F)c1)C(=O)O; Pro(cis-4-Ph) = O=C(O)[C@@H]1C[C@H](c2ccccc2)CN1; NMePhe(3-Cl) = CN[C@@H](Cc1cccc(Cl)c1)C(=O)O; NMePhe(4-Cl) = CN[C@@H](Cc1ccc(Cl)cc1)C(=O)O; X35 = CN([C@@](C)(Cc1ccccc1)C(=O)[*:2])[*:1]; NMePhe(3-Me) = CN[C@@H](Cc1cccc(C)c1)C(=O)O; NMedβ3hAla = C[C@H](CC(=O)[*:2])N(C)[*:1]; NMePhe(2-F) = CN[C@@H](Cc1ccccc1F)C(=O)O; NMeGly(cPent) = CN[C@H](C(=O)O)C1CCCC1; Phe(3-I) = N[C@@H](Cc1cccc(I)c1)C(=O)O; Pro(4,4-F2) = O=C(O)[C@@H]1CC(F)(F)CN1; NMeY = CN[C@@H](Cc1ccc(O)cc1)C(=O)O; NMeCha = CN[C@@H](CC1CCCCC1)C(=O)O; NMeChg = CN[C@H](C(=O)O)C1CCCCC1; NMeF = CN[C@@H](Cc1ccccc1)C(=O)O; NMeI = CC[C@H](C)[C@H](NC)C(=O)O; NMeD = CN[C@@H](CC(=O)O)C(=O)O; NMeL = CN[C@@H](CC(C)C)C(=O)O; NMeV = CN[C@H](C(=O)O)C(C)C; d(β3hA) = C[C@@H](N)CC(=O)O; NMeA = CN[C@@H](C)C(=O)O; Nle = CCCC[C@H](N)C(=O)O; Piperidide = C1CCN(*)CC1; Pyrrolidide = C1CCN(*)C1; dNMeA = CN[C@H](C)C(=O)O; Ac5c = NC1(C(=O)O)CCCC1; Aze = O=C(O)[C@@H]1CCN1; Ac4c = NC1(C(=O)O)CCC1; βAla = NCCC(=O)O; Sar = CNCC(=O)O

Biological target: T1, Kras and SOS1 (biotin-tagged human Kras loaded with GDP, His-tagged human SOS1) (Homo sapiens, UniProt P01116, G12D)
T1 construct: made in house; host or cells: E. coli (stated for Kras only)
Assay: Protein-protein interaction inhibition between Kras and SOS1 (KrasGl2D-SOS PPI) using AlphaScreen
Format: binding
Details: AlphaScreen; biotin-tagged human Kras loaded with GDP, His-tagged human SOS1; read-out: KRAS G12D-SOS PPI IC50
Summary of the method: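 AlphaScreen format: Ni donor beads capture His-SOS1, streptavidin acceptor beads capture biotinylated Kras (E. coli-expressed, GDP-loaded post-purification). Excite 680 nm, read 520-620 nm.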

T1 sequence (P01116 1-188 isoform P01116-2 G12D): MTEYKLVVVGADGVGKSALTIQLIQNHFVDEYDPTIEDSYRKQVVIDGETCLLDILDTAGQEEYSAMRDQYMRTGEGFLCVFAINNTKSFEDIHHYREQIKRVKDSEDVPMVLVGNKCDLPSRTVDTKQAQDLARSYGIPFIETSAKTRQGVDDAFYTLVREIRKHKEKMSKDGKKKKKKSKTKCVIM

SMILES	IC50
CCCC[C@@H]1NC(=O)[C@H](Cc2cccc(I)c2)NC(=O)CN(C)C(=O)[C@H](Cc2ccc(Cl)cc2)N(C)C(=O)CN(C)C(=O)CN(C)C(=O)[C@H]([C@@H](C)CC)NC(=O)[C@H](CC(C)C)N(C)C(=O)C[C@@H](C(=O)N2CCCCC2)N(C)C(=O)[C@H](CC(C)C)NC(=O)[C@H](Cc2cccc(Cl)c2)N(C)C1=O [Compound 1044] ([NMeL]I[Sar][Sar][NMePhe(4-Cl)][Sar][Phe(3-I)][Nle][NMePhe(3-Cl)]L[NMeD]-Piperidide; lactam N-11)	55 nM
CC[C@H](C)[C@@H]1NC(=O)[C@H](C)N(C)C(=O)C[C@@H](C(=O)N2CCCC2)NC(=O)[C@H](CC(C)C)N(C)C(=O)[C@H](Cc2ccccc2)N(C)C(=O)[C@@H]2CCCN2C(=O)[C@H](CCc2ccc(C(F)(F)F)cc2)NC(=O)CN(C)C(=O)[C@H](Cc2ccc(Cl)cc2)N(C)C(=O)CN(C)C(=O)CN(C)C1=O [Compound 1048] ([NMeA]I[Sar][Sar][NMePhe(4-Cl)][Sar][hPhe(4-CF3)]P[NMeF][NMeL]D-Pyrrolidide; lactam N-11)	18 nM
CC[C@H](C)[C@@H]1NC(=O)[C@H](CC(C)C)N(C)C(=O)C[C@@H](C)NC(=O)[C@H](C(C)C)N(C)C(=O)C2(CCCC2)NC(=O)[C@@H]2CCCN2C(=O)[C@H](CCc2ccc(C(F)(F)F)c(Cl)c2)NC(=O)CN(C)C(=O)[C@H](CC2CCCCC2)N(C)C(=O)[C@@H]2CCCN2C(=O)CN(C)C1=O [Compound 1050] (cyclo([Ac5c][NMeV][d(β3hA)][NMeL]I[Sar]P[NMeCha][Sar][hPhe(3-Cl-4-CF3)]P))	49 nM
CCCC[C@@H]1NC(=O)[C@H](Cc2cccc(I)c2)NC(=O)CN(C)C(=O)[C@H](Cc2ccc(Cl)cc2)N(C)C(=O)CN(C)C(=O)CN(C)C(=O)[C@H]([C@@H](C)CC)NC(=O)[C@H](CC(C)C)N(C)C(=O)C[C@@H](C(=O)N2CCCCC2)N(C)C(=O)[C@H](CC(C)C)NC(=O)[C@H](Cc2cccc(C(F)(F)F)c2)N(C)C1=O [Compound 1052] ([NMeL]I[Sar][Sar][NMePhe(4-Cl)][Sar][Phe(3-I)][Nle][NMePhe(3-CF3)]L[NMeD]-Piperidide; lactam N-11)	110 nM
CC[C@H](C)[C@@H]1NC(=O)[C@H](CC(C)C)N(C)C(=O)C[C@@H](C(=O)N2CCCCC2)N(C)C(=O)[C@H](C2CCCCC2)N(C)C(=O)C2(CCCC2)NC(=O)[C@@H]2C[C@H](c3ccccc3)CN2C(=O)[C@H](CCc2ccc(C(F)(F)F)c(Cl)c2)NC(=O)CN(C)C(=O)[C@H](CC2CCCCC2)N(C)C(=O)[C@@H]2CCN2C(=O)[C@H](C)N(C)C1=O [Compound 1053] ([NMeL]I[NMeA][Aze][NMeCha][Sar][hPhe(3-Cl-4-CF3)][Pro(cis-4-Ph)][Ac5c][NMeChg][NMeD]-Piperidide; lactam N-11)	6.7 nM
CCCC[C@@H]1NC(=O)[C@H](Cc2cccc(I)c2)NC(=O)CN(C)C(=O)[C@H](Cc2ccc(OC)cc2)N(C)C(=O)[C@@H]2CCN2C(=O)CN(C)C(=O)[C@H]([C@@H](C)CC)NC(=O)[C@H](CC(C)C)N(C)C(=O)C[C@@H](C(=O)N2CCCCC2)N(C)C(=O)[C@H](CC(C)C)NC(=O)[C@](C)(Cc2ccccc2)N(C)C1=O [Compound 1058] ([NMeL]I[Sar][Aze][NMeY](Me)[Sar][Phe(3-I)][Nle][X35]L[NMeD]-Piperidide; lactam N-11)	14 nM
CC[C@H](C)[C@@H]1NC(=O)[C@H](CC(C)C)N(C)C(=O)C[C@@H](C(=O)N2CCCCC2)N(C)C(=O)[C@H](CC(C)C)N(C)C(=O)C2(CCCC2)NC(=O)[C@@H]2CCCN2C(=O)[C@H](CCc2ccc(C(F)(F)F)c(F)c2)NC(=O)CN(C)C(=O)[C@H](Cc2ccc(Cl)cc2)N(C)C(=O)CN(C)C(=O)CN(C)C1=O [Compound 1061] ([NMeL]I[Sar][Sar][NMePhe(4-Cl)][Sar][hPhe(3-F,4-CF3)]P[Ac5c][NMeL][NMeD]-Piperidide; lactam N-11)	14 nM
CC[C@H](C)[C@@H]1NC(=O)[C@H](CC(C)C)N(C)C(=O)C[C@@H](C(=O)N(C)C)N(C)C(=O)[C@H](C2CCCC2)N(C)C(=O)C2(CCCC2)NC(=O)[C@H](Cc2ccc(Cl)cc2)N(C)C(=O)[C@H](CCc2ccc(C(F)(F)F)c(Cl)c2)NC(=O)CN(C)C(=O)[C@H](CC2CCCCC2)N(C)C(=O)[C@@H]2CCN2C(=O)[C@H](C)N(C)C1=O [Compound 1063] ([NMeL]I[NMeA][Aze][NMeCha][Sar][hPhe(3-Cl-4-CF3)][NMePhe(4-Cl)][Ac5c][NMeGly(cPent)][NMeD]-NMe2; lactam N-11)	43 nM
CC[C@H](C)[C@@H]1NC(=O)[C@H](C)N(C)C(=O)C[C@@H](C)NC(=O)[C@H](C2CCCC2)N(C)C(=O)C2(CCCC2)NC(=O)[C@@H]2CCCN2C(=O)[C@H](CCc2ccc(C(F)(F)F)c(Cl)c2)NC(=O)[C@@H](C)N(C)C(=O)[C@H](Cc2ccc(Cl)cc2)N(C)C(=O)CN(C)C(=O)CN(C)C1=O [Compound 1065] (cyclo([Ac5c][NMeGly(cPent)][d(β3hA)][NMeA]I[Sar][Sar][NMePhe(4-Cl)][dNMeA][hPhe(3-Cl-4-CF3)]P))	70 nM
CC[C@H](C)[C@@H]1NC(=O)[C@H](CC(C)C)N(C)C(=O)C[C@@H](C)N(C)C(=O)[C@H]([C@@H](C)CC)N(C)C(=O)C2(CCC2)NC(=O)[C@@H]2CC(F)(F)CN2C(=O)[C@H](CCc2ccc(C(F)(F)F)c(Cl)c2)NC(=O)CN(C)C(=O)[C@H](Cc2ccc(C(F)(F)F)cc2)N(C)C(=O)CN(C)C(=O)CN(C)C1=O [Compound 1074] (cyclo([Ac4c][NMeI][NMedβ3hAla][NMeL]I[Sar][Sar][NMePhe(4-CF3)][Sar][hPhe(3-Cl-4-CF3)][Pro(4,4-F2)]))	11 nM
CC[C@H](C)[C@@H]1NC(=O)[C@H](C)N(C)C(=O)C[C@@H](C)NC(=O)[C@H](C2CCCC2)N(C)C(=O)C2(CCCC2)NC(=O)[C@@H]2CCCN2C(=O)[C@H](CCc2ccc(C(F)(F)F)c(Cl)c2)NC(=O)[C@@H](C)N(C)C(=O)[C@H](Cc2ccc(F)c(F)c2)N(C)C(=O)CN(C)C(=O)CN(C)C1=O [Compound 1075] (cyclo([Ac5c][NMeGly(cPent)][d(β3hA)][NMeA]I[Sar][Sar][NMePhe(3,4-F2)][dNMeA][hPhe(3-Cl-4-CF3)]P))	140 nM
CC[C@H](C)[C@@H]1NC(=O)[C@H](C)N(C)C(=O)C[C@@H](C)NC(=O)[C@H](C2CCCC2)N(C)C(=O)C2(CCCC2)NC(=O)[C@@H]2CCCN2C(=O)[C@H](CCc2ccc(C(F)(F)F)c(Cl)c2)NC(=O)CN(C)C(=O)[C@H](Cc2ccccc2F)N(C)C(=O)[C@@H]2CCCN2C(=O)CN(C)C1=O [Compound 1077] (cyclo([Ac5c][NMeGly(cPent)][d(β3hA)][NMeA]I[Sar]P[NMePhe(2-F)][Sar][hPhe(3-Cl-4-CF3)]P))	34 nM
CC[C@H](C)[C@@H]1NC(=O)[C@H](C)N(C)C(=O)C[C@@H](C)NC(=O)[C@H](C(C)C)N(C)C(=O)[C@H](Cc2ccccc2)N(C)C(=O)[C@H](CC(C)C)N(C)C(=O)[C@H](CCc2ccc(C(F)(F)F)c(Cl)c2)NC(=O)CN(C)C(=O)[C@H](Cc2ccc(Cl)cc2)N(C)C(=O)CN(C)C(=O)CN(C)C1=O [Compound 1079] (cyclo(I[Sar][Sar][NMePhe(4-Cl)][Sar][hPhe(3-Cl-4-CF3)][NMeL][NMeF][NMeV][d(β3hA)][NMeA]))	15 nM
CC[C@H](C)[C@@H]1NC(=O)[C@H](CC(C)C)N(C)C(=O)C[C@@H](C(=O)N(C)C)N(C)C(=O)[C@H](C2CCCC2)N(C)C(=O)[C@H](C)NC(=O)[C@H](CCN2CCCC(F)(F)C2)N(C)C(=O)[C@H](CCc2ccc(C(F)(F)F)c(Cl)c2)NC(=O)CN(C)C(=O)[C@H](CC2CCCCC2)N(C)C(=O)[C@@H]2CCN2C(=O)[C@H](C)N(C)C1=O [Compound 1081] ([NMeL]I[NMeA][Aze][NMeCha][Sar][hPhe(3-Cl-4-CF3)][NMeAbu(3,3-F2-piperidino)]A[NMeGly(cPent)][NMeD]-NMe2; lactam N-11)	25 nM
CC[C@H](C)[C@@H]1NC(=O)[C@H](CC(C)C)N(C)C(=O)C[C@@H](C)NC(=O)[C@H](C(C)C)N(C)C(=O)C2(CCCC2)NC(=O)[C@@H]2CCCN2C(=O)[C@H](CCc2ccc(C(F)(F)F)c(Cl)c2)NC(=O)CN(C)C(=O)[C@H](CC2CCCCC2)N(C)C(=O)[C@@H]2CCN2C(=O)[C@@H]2CCCN2C1=O [Compound 1082] (cyclo([Ac5c][NMeV][d(β3hA)][NMeL]IP[Aze][NMeCha][Sar][hPhe(3-Cl-4-CF3)]P))	270 nM
CC[C@H](C)[C@@H]1NC(=O)[C@H](C)N(C)C(=O)C[C@@H](C(=O)N2CCCC2)NC(=O)[C@H](CC(C)C)N(C)C(=O)[C@H](Cc2ccccc2)NC(=O)[C@H](CC(C)C)NC(=O)[C@H](CCc2ccc(C(F)(F)F)cc2)NC(=O)CN(C)C(=O)[C@H](Cc2ccc(Cl)cc2)N(C)C(=O)CN(C)C(=O)CN(C)C1=O [Compound 1085] ([NMeA]I[Sar][Sar][NMePhe(4-Cl)][Sar][hPhe(4-CF3)]LF[NMeL]D-Pyrrolidide; lactam N-11)	50 nM
CC[C@H](C)[C@@H]1NC(=O)[C@H](C)N(C)C(=O)CCNC(=O)[C@H](CC(C)C)N(C)C(=O)[C@H](Cc2ccccc2)N(C)C(=O)[C@@H]2CCCN2C(=O)[C@H](CCc2ccc(C(F)(F)F)cc2)NC(=O)CN(C)C(=O)[C@H](Cc2ccc(Cl)cc2)N(C)C(=O)CN(C)C(=O)CN(C)C1=O [Compound 1086] (cyclo(I[Sar][Sar][NMePhe(4-Cl)][Sar][hPhe(4-CF3)]P[NMeF][NMeL][βAla][NMeA]))	180 nM
CC[C@H](C)[C@@H]1NC(=O)[C@H](C)N(C)C(=O)C[C@@H](C)NC(=O)[C@H](C2CCCC2)N(C)C(=O)C2(CCCC2)NC(=O)[C@@H]2CCCN2C(=O)[C@H](CCc2ccc(C(F)(F)F)c(Cl)c2)NC(=O)[C@@H](C)N(C)C(=O)[C@H](Cc2cccc(C)c2)N(C)C(=O)CN(C)C(=O)CN(C)C1=O [Compound 1088] (cyclo([Ac5c][NMeGly(cPent)][d(β3hA)][NMeA]I[Sar][Sar][NMePhe(3-Me)][dNMeA][hPhe(3-Cl-4-CF3)]P))	170 nM
